# Read-outs that look alike come from different tables or passages of the source.
# Experiments:
# [1] = Log D of 18F-DBPOF-c(RGDyk), 1-octanol/PBS; type: physicochemical; conditions: shake-flask, pre-saturated 1-octanol/PBS pH 7.4; 2.0 mL each; four tubes; shaken 10 min, centrifuged 5 min; γ counter, decay-corrected
# Method: = 7.4) system to estimate the hydrophobicity changes between c(RGDyk) and 18F-DBP OF-c(RGDyk) that may influence biological function of c(RGDyk).
# 1-Octanol (2.0 mL) and phosphate buffer (2.0 mL) were pipetted into four 12 mL test tubes containing […] of radiotracer. The test tubes were stoppered, mechanic ally shaken for 10 min, and centrifuged (5 min). From each tube, approximately 0.5 mL of buffer was transferred into a pre -weighed test tube for counting. The remaining buffer was discarded and approximately 0.5 mL of octanol phase was also transferred int o a separate pre-weighed test tube. The amount of radioactivity in each tube was measured by a γ counter and corrected for decay. Accurate volumes of each counted phase were determined by weight differences and known densities. The partition coefficient was calculated using Supplementary Equation 1:
# Log D = Counts/m L in buffer = -0.59 ± 0.09 1 […]
# Photosensitizers were added at concentrations 0, 0.01, 0.05, 0.1, 0.5, 1 and 5 mM. The cell cytotoxic effect on the U87MG cells were determined using the CCK8 assay.
# After 12 h and 24 h of incubation after the treatment we added 10 µL of CCK8 and incubated the cells for another 1 h at 37 °C and in 5% CO2. The measurement of absorbance was carried out on a 96-well microplate reader Synergy HT at 450 nm. […]
# U87MG gliomablastoma [2] = type: in vivo, mouse; conditions: for Tumor-SUVbw: unblocked, mean n=3
# Method: (§1) 37 °C in a humidified atmosphere containing 5% CO 2 in Dulbecco’s Modified Eagle Medium (DMEM, high glucose) supplemented with 10% fetal bovine serum. Each male BALB/ c nude mouse wa s injected subcutane ously in the right foreleg with about 2 × 10^6 U87MG cells. At 4-5 week after inoculation, when the tumors reached about 0.5 cm in diameter, the mice were used for PET/CT imaging studies.
# (§2) MicroPET/CT imaging with 18F-DBP OF-c(RGDyk)
# Glioblastoma tumor mice were employed in microPET/CT imaging (n = 3) with 18F-DBPOF-c(RGDyk). Anesthetization was con ducted with 2.5% isoflurane during preparation and 1.5% during scans. 10 min dynamic microPET-CT scans were acquired by an Inveon microPET/CT (Siemens, Germany) 20 min post i.v. injection of 18F-DBPOF-c(RGDyk) (100 µL, 100 µCi). Reconstruction of PET images was performed with 3D OPMAP algorithm. […]
# 39~2. 51 times higher than blocked mice . The tumor was clearly observable whereas blocked mice had much less tumor uptake as indicated in Supplementary Figure 13. […]
# U87MG gliomablastoma [3] = type: in vivo, mouse; conditions: 60 min dynamic images; n = 3
# Method: as §1, §2
# Glioblastoma tumor mice were employed in microPET/CT imaging (n = 3) with 18F-DBPOF-c(RGDyk). Anesthetization was con ducted with 2.5% isoflurane during preparation and 1.5% during scans. 10 min dynamic microPET-CT scans were acquired by an Inveon microPET/CT (Siemens, Germany) 20 min post i.v. injection of 18F-DBPOF-c(RGDyk) (100 µL, 100 µCi). Reconstruction of PET images was performed with 3D OPMAP algorithm.
# In order to study the specific tumor uptake, mice were pre-blocked by injection of 10 µmol DBPOF-c(RGDyk) 30 min prior to injection of 18F-DBPOF-c(RGDyk) as the control group. Then 60 min dynamic images were acquired to provide a control group […]
# while the average tumor uptake SUV in the blocked mice was only 0.32~1.12. The tumor uptake of unblocked mice is 1. 39~2. 51 times higher than blocked mice . The tumor was clearly observable whereas blocked mice had much less tumor uptake as indicated in Supplementary Figure 13. […]
substance,measurement,setting,value
"^18F-DBPOF-c(RGDyk) (head to tail) [18F-labeled peptide ligand, targets the integrin αvβ3 receptor of the U87MG cell]",Log D,[1],-0.59 ± 0.09
same,Tumor-SUVbw,U87MG gliomablastoma [2]; 21 min,0.5941
same,Tumor-SUVbw,U87MG gliomablastoma [2]; 22 min,0.4485
same,Tumor-SUVbw,U87MG gliomablastoma [2]; 23 min,0.7452
same,Tumor-SUVbw,U87MG gliomablastoma [2]; 24 min,0.761
same,Tumor-SUVbw,U87MG gliomablastoma [2]; 25 min,0.4755
same,Tumor-SUVbw,U87MG gliomablastoma [2]; 26 min,0.5271
same,Tumor-SUVbw,U87MG gliomablastoma [2]; 27 min,0.4212
same,Tumor-SUVbw,U87MG gliomablastoma [2]; 28 min,0.5137
same,Tumor-SUVbw,U87MG gliomablastoma [2]; 29 min,0.5036
same,Tumor-SUVbw,U87MG gliomablastoma [2]; 30 min,0.6269
same,"uptake, standardized uptake value (SUV) in U87MG gliomablastoma","U87MG gliomablastoma [2]; microPET/CT, 100 µCi i.v., dynamic scan from 20 min post injection",0.76
same,target to non-target ratio,"U87MG gliomablastoma [2]; microPET/CT, U87MG gliomablastoma",2.4
same,average tumor uptake SUV in the blocked mice,U87MG gliomablastoma [3],0.32~1.12
